Test: Measurement of acid dissociation constant (pKa) by titration in methanol
Format: physicochemical
Conditions: 25° C.; 1 part by weight acid in 99 parts methanol titrated with 0.1 mol/L methanolic potassium hydroxide; pH at half the titrant of first equivalence point
Protocol: At 25° C., 99 parts by weight of methanol was added to 1 part by weight of a carboxylic acid (A), and the contents were shaken and mixed until the carboxylic acid (A) was completely dissolved. A 0.1 mol/L methanolic potassium hydroxide solution was added dropwise to the resulting methanol solution of the carboxylic acid (A) to obtain a titration curve having inflection points, and among the inflection points, an inflection point at which the amount of titrant added was the smallest was defined as an equivalence point. The pH at half the amount of titrant added at the equivalence point on the obtained titration curve was read, and the pH was defined as the acid dissociation constant (pKa) of the carboxylic acid (A).
The pKa of the acid component (A′) was also measured in the same manner as the pKa of the carboxylic acid (A).
O=C(O)c1ccc(C(=O)O)o1 [2,5-Furandicarboxylic acid, 2,5-furandicarboxylic acid, reference compound] showed a pKa of 3.4. With O=C(O)CCCCCCCC(=O)O [Azelaic acid, azelaic acid, reference compound] the pKa was 6.7. With OB(O)O [Boric acid, boric acid, reference compound] the pKa was 9.8. With O=C(O)c1ccccc1C(=O)OCCO [Example A1, phthalic acid ethylene glycol monoester] the “Acid dissociation constant (pKa)” value was 3.8. For O=C(O)c1cc(C(=O)O)c(C(=O)OCCO)cc1C(=O)O [Example A5, pyromellitic acid ethylene glycol monoester], the “Acid dissociation constant (pKa)” value was 2.6. For O=C(O)c1c(C(=O)O)c(C(=O)O)c(C(=O)OCCO)c(C(=O)O)c1C(=O)O [Example A7, mellitic acid ethylene glycol monoester], the “Acid dissociation constant (pKa)” value was 1.7. In the case of CCCCCCCCCCOC(=O)c1ccccc1C(=O)O [Example A10, phthalic acid n-decanol monoester], the “Acid dissociation constant (pKa)” value is reported as 3.9. With O=C(O)c1ccccc1C(=O)OCCCCCCCCCCO [Example A11, phthalic acid 1,10-decanediol monoester] the “Acid dissociation constant (pKa)” value was 4.0. For O=C(O)c1ccccc1C(=O)O [Phthalic acid, phthalic acid, reference compound], the pKa was 3.9. Molecule O=C(O)c1cc(C(=O)O)c(C(=O)O)cc1C(=O)O [Pyromellitic acid, pyromellitic acid, reference compound] has a pKa of 2.8. In the case of O=C(O)c1ccc(C(=O)O)c(C(=O)O)c1 [Trimellitic acid, trimellitic acid, reference compound], the pKa is reported as 3.5. With “pyromellitic acid polyethylene glycol monoester [Example A6]” the “Acid dissociation constant (pKa)” value was 2.9. For “trimellitic acid polyethylene glycol monoester [Example A4]”, the “Acid dissociation constant (pKa)” value was 3.6.

Source: patent publication US20260279694A1, “ELECTROLYTE SOLUTION FOR HYBRID ELECTROLYTIC CAPACITORS AND HYBRID ELECTROLYTIC CAPACITOR” (SANYO CHEMICAL INDUSTRIES, LTD., priority 2023, published 2026)
